Tests used:
[1] = tested on: WPMY-1 cells; test: Uptake of PKH26-labeled large oncosomes (LO) by recipient cells, FACS / fluorescent imaging; assay type: cell-based, human; conditions: WPMY-1 cells treated with PKH26-labeled LO for 1 h at 37° C. in presence of the compound
Method: As shown in FIG. 23 LO internalization differs between cells. LO isolation was performed using a filtration approach where the larger vesicles are retained by the filter and the smaller ones flow through. To test LO uptake, LO were labeled with a lipophilic dye, PKH26 and then used to treat target cells for 1 h at 37° C. LO uptake levels have been measured as the acquisition of fluorescence by target cells either by FACS or confocal imaging.
LO isolation was preformed using a filtration approach where the larger vesicles are retained by the filter and the smaller ones flow through. To test LO uptake LO were labeled with a lipophilic dye, PKH26 and then used to treat target cells for 1 h at 37° C. or 4° C. in presence or absence of the indicated compounds. LO uptake levels were measured as the acquisition of fluorescence by target cells either by FACS and fluorescent imaging. Dynamin2 silencing has been performed by transient transfection of WPMY-1 cells with an oligos against Dynamin2.

[2] = tested on: HUVEC; test: Tube formation assay in endothelial cells; assay type: cell-based; conditions: HUVECs treated with LO (20 μg/ml) in presence of Dyn
Method: (§1) LO and Exo isolation was performed by differential high-speed centrifugation (10,000×g and 100,000×g) followed by discontinuous density gradient centrifugation. Conditioned media from LNCaPMyrAkt1 was used as source for LO and Exo. Tube formation assay in endothelial cells, HUVEC treated with LO or Exo 20 μg/ml directly or with conditioned media from NAF previously exposed to either LO or Exo. After 6 h-8 h tube formation rate is recorded by imaging, and quantified by counting the branching points in randomly chosen fields from each condition.
as §1, with “Exo. Luciferase reporter assay for c-Myc promoter activation was performed in NAF transfected with c-Myc promoter or vector plasmid treated with either LO or Exo 20 μg/ml for 6 h in presence or absence of Dynasore 20 nM.” for “Exo.”, “directly in presence” for “directly”, “absence of Dynasore 20 nM.” for “with conditioned media from NAF previously exposed to either LO or Exo.”, “After for” for “After”

[3] = tested on: c-Myc; test: Luciferase reporter assay for c-Myc promoter activation in NAF; assay type: cell-based; conditions: NAF exposed to LO (20 μg/ml) in presence of Dyn (20 μM)
Method: LO and Exo isolation was performed by differential high-speed centrifugation (10,000×g and 100,000×g) followed discontinuous density gradient centrifugation. Conditioned media from LNCaPMyrAkt1 was used as source for LO and Exo. Nuclear extract from WPMY-1 cells treated with LO for the indicated time was used to perform the transcription factor activation profiling array from Signosis. Luciferase reporter assay for c-Myc promoter activation has been performed in NAF transfected with c-Myc promoter or vector plasmid treated with either LO or Exo 20 μg/ml for 6 h. RT-qPCR for c-Myc target cells in NAF treated with either LO or Exo 20 μg/ml for 6 h or 24 h.
as §1, with “Tube formation assay in endothelial cells, HUVEC treated with LO or Exo 20 μg/ml directly or with conditioned media from NAF previously exposed to either LO or Exo.” left out, “After for” for “After”

c-Myc activation induced by LO (luciferase reporter) [3]	Compound	LO uptake (internalization, mean fluorescent intensity) [1]	tube formation [2]	LO uptake (internalization, mean fluorescent intensity) ([1]; listed as Dyn)
–	C=C1[C@@H](C)[C@H]2[C@H](Cc3ccccc3)NC(=O)[C@]23[C@H](OC(C)=O)/C=C/[C@@](C)(O)C(=O)[C@@H](C)C/C=C/[C@H]3[C@@H]1O [cytochalasin D]	partially reduced	–	–
reverted	O=C(N/N=C/c1ccc(O)c(O)c1)c1cc2ccccc2cc1O [dynasore]	significantly reduced	significantly inhibited	inhibited

Reference: patent US10254285B2, “Methods for detecting and treating cancer metastasis” (Cedars-Sinai Medical Center, priority 2013, dated 2019)
